One compound from ChEMBL document CHEMBL4823249, “Discovery of a Pyrimidinedione Derivative as a Potent and Orally Bioavailable Axl Inhibitor” (J Med Chem, 2021) can be followed below.

Active and inactive are the calls of the source. The calls are words filed in the database; no cut-off is given here.

Data set [1] deals with Tyrosine-protein kinase receptor TYRO3 (Homo sapiens, UniProt Q06418). In words: Inhibition of recombinant human RSE (451 to end residues) using KVEKIGEGTYGVVYK as substrate incubated for 40 mins in presence of [gamma33P]ATP by scintillation counting based radiometry assay.
The nature of data set [2]: Antiproliferative activity against human JHH7 cells incubated for 72 hrs by SRB or CCK8 assay. It counts as functional, cell-based. To be noted: JHH7, 72 h.
For data set [3], the target named is ALK tyrosine kinase receptor (Homo sapiens, UniProt Q9UM73). In words: Inhibition of human ALK (1058 to end residues) using KKKSPGEYVNIEFG as substrate incubated for 40 mins in presence of [gamma-33ATP] by scintillation counting based radiometry assay.
Data set [4] in a line: AUC(0 to t) in Sprague-Dawley rat at 3 mg/kg, po measured upto 24 hrs by LC-MS analysis. It counts as ADME, organism-based. The arrangement: route oral, dose 3 mg/kg, time <=24. To be noted: in vivo.
The next data set concerns NCI-H1299. In words: Inhibition of Gas6-stimulated cell migration in human NCI-H1299 cells at […] after 24 hrs by crystal violet staining based microscopic analysis. The format is functional. Conditions: dose lower 5.0 µM.
Data set [5] concerns the target Mast/stem cell growth factor receptor Kit (Homo sapiens, UniProt P10721). In words: Inhibition of recombinant human C-Kit using poly(Glu, Tyr) 4:1 as substrate incubated for 40 mins in presence of [gamma-33ATP] by scintillation counting based radiometry assay.
A further data set deals with U-87 MG. In words: Antitumor activity against human U-87MG cells xenografted in BALB/c nude mouse assessed as tumor growth inhibition at 100 mg/kg, po administered once daily for 14 days by caliper method. It counts as functional, U-87MG ATCC. Conditions: 336 h, time 14 day, read-out: TGI.
The next data set has as its system MDA-MB-231. In words: Antiproliferative activity against human MDA-MB-231 cells incubated for 72 hrs by SRB or CCK8 assay. It counts as functional, cell-based. Conditions: MDA-MB-231, 72 h.
Data set [6] has as its target T1, Hepatocyte growth factor receptor (Homo sapiens, UniProt P08581). In words: Inhibition of MET signaling in human MKN45 cells assessed as reduction in phosphorylation of ERK after 2 hrs by Western blotting analysis. Conditions: MKN-45, dose 10-100 nM. It counts as cell-based.
The nature of data set [7]: Cmax in Sprague-Dawley rat at 3 mg/kg, po measured upto 24 hrs by LC-MS analysis. The arrangement: route oral, dose 3 mg/kg, time <=24. To be noted: in vivo. The format is ADME, organism-based.
Another data set concerns HCC78. In words: Antiproliferative activity against human HCC78 cells incubated for 72 hrs by SRB or CCK8 assay. It counts as functional, cell-based. To be noted: HCC78, 72 h.
The nature of data set [8]: AUC(0 to t) in ICR mouse at 1 mg/kg, iv measured upto 24 hrs by LC-MS analysis. It counts as ADME, organism-based. The arrangement: route intravenous, dose 1 mg/kg, time <=24. Conditions: in vivo.
Data set [9] has as its target T2, Tyrosine-protein kinase receptor UFO (Mus musculus) (UniProt Q00993).
T2 sequence (whole entry): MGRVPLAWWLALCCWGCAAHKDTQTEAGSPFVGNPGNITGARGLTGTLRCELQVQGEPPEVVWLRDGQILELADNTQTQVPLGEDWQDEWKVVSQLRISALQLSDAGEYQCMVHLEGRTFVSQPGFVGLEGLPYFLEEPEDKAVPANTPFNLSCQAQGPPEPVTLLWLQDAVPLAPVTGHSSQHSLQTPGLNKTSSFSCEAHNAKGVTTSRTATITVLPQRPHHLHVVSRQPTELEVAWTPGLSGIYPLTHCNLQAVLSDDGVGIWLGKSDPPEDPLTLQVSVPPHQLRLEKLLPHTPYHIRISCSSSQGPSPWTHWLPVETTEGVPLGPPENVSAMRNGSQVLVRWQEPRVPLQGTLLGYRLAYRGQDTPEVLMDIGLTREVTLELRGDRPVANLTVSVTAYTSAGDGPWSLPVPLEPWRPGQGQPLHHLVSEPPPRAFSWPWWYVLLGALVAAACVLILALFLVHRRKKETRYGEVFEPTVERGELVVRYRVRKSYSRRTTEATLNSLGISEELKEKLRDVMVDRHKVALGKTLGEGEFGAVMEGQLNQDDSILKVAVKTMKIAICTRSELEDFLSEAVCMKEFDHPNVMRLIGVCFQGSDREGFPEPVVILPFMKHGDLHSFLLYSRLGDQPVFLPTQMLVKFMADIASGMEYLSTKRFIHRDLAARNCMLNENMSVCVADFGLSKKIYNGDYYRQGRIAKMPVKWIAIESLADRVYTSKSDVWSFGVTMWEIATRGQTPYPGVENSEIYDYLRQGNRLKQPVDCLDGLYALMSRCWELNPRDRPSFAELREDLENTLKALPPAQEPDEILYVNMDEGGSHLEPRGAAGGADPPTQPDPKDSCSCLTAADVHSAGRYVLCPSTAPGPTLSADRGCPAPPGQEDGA
In words: Inhibition of AXL in mouse BaF3/TEL-AXL cells assessed as reduction in phosphorylation of AXL at 1 to 15 nM after 2 hrs by Western blotting analysis. The format is cell-based. Conditions: dose 1-15 nM.

In a further data set the test system is BT-549. In words: Antiproliferative activity against human BT-549 cells incubated for 72 hrs by SRB or CCK8 assay. It counts as functional, cell-based. To be noted: BT-549, 72 h.
Data set [10] has as its target T2, Tyrosine-protein kinase receptor UFO (Mus musculus). In words: Inhibition of AXL in mouse BaF3/TEL-AXL cells assessed as reduction in Gas6-induced phosphorylation of AKT at 0.5 to 50 nM preincubated for 2 hrs followed by Gas6 stimulation for 15 mins by Western blotting analysis. The format is cell-based. To be noted: dose 0.5-50 nM.
A short description of data set [11]: Half life in Sprague-Dawley rat at 3 mg/kg, po measured upto 24 hrs by LC-MS analysis. It counts as ADME, organism-based. Conditions: in vivo.
In the next data set the target is CDK4/Cyclin D3 (Homo sapiens, UniProt P11802). In words: Inhibition of recombinant full length human CDK4/CyclinD3 using Rb fragment as substrate incubated for 40 mins in presence of [gamma-33ATP] by scintillation counting based radiometry assay. It counts as protein-complex assay.
CDK4/Cyclin D3, sequence (P11802 whole entry, the tested form may be a part): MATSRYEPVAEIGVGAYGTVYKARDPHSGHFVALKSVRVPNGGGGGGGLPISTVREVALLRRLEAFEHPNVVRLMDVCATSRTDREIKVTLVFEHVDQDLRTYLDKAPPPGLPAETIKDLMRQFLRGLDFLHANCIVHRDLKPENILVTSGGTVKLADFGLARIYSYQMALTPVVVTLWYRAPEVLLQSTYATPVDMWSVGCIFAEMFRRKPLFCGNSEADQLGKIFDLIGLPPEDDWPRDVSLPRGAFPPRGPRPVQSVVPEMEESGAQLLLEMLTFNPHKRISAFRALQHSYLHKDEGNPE
CDK4/Cyclin D3, sequence (P30281 whole entry, further chain, the tested form may be a part): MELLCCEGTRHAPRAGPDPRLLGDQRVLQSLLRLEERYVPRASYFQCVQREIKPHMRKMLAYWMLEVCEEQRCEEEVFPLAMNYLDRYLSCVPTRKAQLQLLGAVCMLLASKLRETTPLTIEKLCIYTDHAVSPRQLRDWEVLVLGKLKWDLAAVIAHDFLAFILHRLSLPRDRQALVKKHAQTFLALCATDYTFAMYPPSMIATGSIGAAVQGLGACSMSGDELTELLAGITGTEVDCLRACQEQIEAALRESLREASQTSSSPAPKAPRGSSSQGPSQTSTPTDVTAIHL
Data set [12] deals with Platelet-derived growth factor receptor alpha (Homo sapiens, UniProt P16234). In words: Inhibition of human PDGFRalpha (550 to end residues) using poly(Glu, Tyr) 4:1 as substrate measured after 40 mins in presence of [gamma33P]ATP by scintillation counting based radiometry assay.
Platelet-derived growth factor receptor alpha, sequence (P16234 whole entry): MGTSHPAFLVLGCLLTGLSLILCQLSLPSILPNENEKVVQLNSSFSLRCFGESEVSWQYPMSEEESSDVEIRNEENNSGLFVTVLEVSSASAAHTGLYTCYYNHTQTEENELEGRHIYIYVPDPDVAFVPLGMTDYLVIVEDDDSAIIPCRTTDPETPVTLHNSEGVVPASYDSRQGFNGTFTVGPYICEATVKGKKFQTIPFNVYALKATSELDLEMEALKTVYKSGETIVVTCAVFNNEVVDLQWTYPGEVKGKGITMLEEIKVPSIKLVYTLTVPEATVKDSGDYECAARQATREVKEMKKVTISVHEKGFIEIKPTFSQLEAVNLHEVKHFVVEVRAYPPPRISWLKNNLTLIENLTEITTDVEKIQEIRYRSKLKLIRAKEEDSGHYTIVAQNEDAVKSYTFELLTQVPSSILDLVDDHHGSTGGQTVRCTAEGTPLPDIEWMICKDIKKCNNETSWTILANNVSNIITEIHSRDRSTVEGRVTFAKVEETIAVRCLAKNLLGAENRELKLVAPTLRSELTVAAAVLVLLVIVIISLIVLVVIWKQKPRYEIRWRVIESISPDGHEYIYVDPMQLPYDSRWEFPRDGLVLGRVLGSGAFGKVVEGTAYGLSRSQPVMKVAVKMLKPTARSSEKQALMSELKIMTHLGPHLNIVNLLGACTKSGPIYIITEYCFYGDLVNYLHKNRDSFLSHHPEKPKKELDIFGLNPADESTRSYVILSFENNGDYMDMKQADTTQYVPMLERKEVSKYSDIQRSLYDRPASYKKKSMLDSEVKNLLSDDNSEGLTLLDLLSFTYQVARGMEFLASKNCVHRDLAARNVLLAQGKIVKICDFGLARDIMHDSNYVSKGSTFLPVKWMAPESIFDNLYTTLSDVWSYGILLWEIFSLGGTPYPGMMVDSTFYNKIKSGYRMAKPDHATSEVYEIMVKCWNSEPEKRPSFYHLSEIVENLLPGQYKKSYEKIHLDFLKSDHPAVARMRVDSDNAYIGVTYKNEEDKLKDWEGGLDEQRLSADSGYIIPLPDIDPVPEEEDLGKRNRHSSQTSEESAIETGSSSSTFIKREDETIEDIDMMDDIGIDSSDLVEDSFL
In data set [13] the target is T1, Hepatocyte growth factor receptor. In words: Inhibition of MET signaling in human EBC1 cells assessed as reduction in phosphorylation of AKT after 2 hrs by Western blotting analysis. It counts as cell-based. To be noted: EBC-1, dose 10-100 nM.
The target in data set [14] is Proto-oncogene tyrosine-protein kinase receptor Ret (Homo sapiens, UniProt P07949). In words: Inhibition of recombinant human Ret (658 to end residues) using KKKSPGEYVNIEFG as substrate incubated for 40 mins in presence of [gamma33P]ATP by scintillation counting based radiometry assay.
Data set [15] is described as follows: AUC(0 to infinity) in ICR mouse at 1 mg/kg, iv measured upto 24 hrs by LC-MS analysis. It counts as ADME, organism-based. The arrangement: route intravenous, dose 1 mg/kg, time <=24. To be noted: in vivo.
The nature of data set [16]: Oral availability in ICR mouse at 3 mg/kg measured upto 24 hrs by LC-MS analysis. The format is ADME, organism-based. To be noted: in vivo.
Data set [17] addresses Tyrosine-protein kinase JAK1 (Homo sapiens, UniProt P23458). In words: Inhibition of human JAK1 (866 to end residues) using GEEPLYWSFPAKKK as substrate after 40 mins in presence of [gamma-33ATP] by scintillation counting based radiometry assay.

T1 sequence (P08581 whole entry): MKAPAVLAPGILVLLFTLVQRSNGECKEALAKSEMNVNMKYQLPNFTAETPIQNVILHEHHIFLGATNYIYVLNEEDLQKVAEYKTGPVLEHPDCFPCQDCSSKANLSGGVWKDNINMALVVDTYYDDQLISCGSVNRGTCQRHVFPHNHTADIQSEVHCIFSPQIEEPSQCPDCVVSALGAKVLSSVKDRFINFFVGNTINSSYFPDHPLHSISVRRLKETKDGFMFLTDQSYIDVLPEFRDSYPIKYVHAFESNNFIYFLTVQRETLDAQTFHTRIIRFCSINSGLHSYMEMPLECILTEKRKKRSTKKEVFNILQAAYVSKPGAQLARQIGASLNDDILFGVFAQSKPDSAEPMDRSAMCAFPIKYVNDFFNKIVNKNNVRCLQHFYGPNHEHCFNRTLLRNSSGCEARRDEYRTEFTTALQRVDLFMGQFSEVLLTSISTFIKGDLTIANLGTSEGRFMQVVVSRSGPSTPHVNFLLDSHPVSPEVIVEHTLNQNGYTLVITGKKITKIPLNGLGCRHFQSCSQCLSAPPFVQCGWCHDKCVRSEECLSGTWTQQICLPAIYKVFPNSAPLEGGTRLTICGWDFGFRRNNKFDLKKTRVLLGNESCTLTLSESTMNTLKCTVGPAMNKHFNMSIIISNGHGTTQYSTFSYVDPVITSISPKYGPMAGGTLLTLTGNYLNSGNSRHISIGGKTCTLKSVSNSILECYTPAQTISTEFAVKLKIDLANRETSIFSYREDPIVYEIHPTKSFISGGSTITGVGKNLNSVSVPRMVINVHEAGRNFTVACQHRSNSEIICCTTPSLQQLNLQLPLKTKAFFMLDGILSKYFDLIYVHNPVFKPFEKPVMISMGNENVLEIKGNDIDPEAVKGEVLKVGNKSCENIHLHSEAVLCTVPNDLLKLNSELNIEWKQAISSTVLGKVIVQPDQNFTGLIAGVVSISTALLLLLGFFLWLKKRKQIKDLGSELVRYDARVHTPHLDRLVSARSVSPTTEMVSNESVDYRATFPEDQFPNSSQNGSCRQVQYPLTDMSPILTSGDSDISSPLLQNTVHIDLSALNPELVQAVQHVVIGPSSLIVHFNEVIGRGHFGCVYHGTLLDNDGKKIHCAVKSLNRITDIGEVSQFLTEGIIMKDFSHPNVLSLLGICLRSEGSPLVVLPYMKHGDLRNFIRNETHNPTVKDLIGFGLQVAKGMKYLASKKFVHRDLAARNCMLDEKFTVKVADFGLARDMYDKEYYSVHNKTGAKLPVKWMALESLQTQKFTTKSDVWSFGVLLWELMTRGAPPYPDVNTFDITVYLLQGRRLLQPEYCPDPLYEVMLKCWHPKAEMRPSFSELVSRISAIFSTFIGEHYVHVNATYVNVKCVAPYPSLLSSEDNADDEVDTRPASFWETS
Tyrosine-protein kinase JAK1, sequence (P23458 whole entry): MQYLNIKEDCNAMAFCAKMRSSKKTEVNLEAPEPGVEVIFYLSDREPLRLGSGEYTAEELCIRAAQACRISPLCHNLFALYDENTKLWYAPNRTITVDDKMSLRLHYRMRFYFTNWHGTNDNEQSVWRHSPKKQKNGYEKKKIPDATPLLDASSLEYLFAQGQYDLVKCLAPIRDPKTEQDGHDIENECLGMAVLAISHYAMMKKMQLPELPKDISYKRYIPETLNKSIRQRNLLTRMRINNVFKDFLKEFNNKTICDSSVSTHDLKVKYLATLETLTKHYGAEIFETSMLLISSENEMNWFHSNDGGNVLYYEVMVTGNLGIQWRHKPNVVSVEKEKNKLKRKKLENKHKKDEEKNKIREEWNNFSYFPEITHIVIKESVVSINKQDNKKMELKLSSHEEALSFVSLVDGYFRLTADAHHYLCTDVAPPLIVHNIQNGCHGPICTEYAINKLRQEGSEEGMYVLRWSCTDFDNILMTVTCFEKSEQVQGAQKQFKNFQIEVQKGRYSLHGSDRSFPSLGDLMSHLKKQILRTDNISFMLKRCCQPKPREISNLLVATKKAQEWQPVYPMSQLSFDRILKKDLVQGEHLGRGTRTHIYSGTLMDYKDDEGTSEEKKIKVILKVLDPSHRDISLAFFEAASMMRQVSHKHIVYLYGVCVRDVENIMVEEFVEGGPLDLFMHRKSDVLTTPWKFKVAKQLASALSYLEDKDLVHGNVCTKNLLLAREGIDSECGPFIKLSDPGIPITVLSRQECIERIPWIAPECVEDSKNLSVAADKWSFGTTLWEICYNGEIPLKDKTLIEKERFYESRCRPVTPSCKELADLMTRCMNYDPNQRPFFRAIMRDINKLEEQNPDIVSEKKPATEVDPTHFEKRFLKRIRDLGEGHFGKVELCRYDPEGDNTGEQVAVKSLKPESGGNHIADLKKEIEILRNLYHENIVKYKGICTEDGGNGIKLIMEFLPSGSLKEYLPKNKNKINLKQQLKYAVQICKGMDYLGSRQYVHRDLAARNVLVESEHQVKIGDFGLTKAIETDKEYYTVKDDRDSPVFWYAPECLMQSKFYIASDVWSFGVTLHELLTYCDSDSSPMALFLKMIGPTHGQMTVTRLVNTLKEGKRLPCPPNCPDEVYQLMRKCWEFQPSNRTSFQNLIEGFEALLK

For `CC(C)n1cc(C(=O)Nc2ccc(Oc3ccnc(NC(=O)C4CC4)c3)c(F)c2)c(=O)n(-c2ccc(F)cc2)c1=O`, the IC50 in data set [1] is 1 nM; in [2], over 10 µM; in [3] it was over 1000 nM; in data set [5], over 1000 nM; with MDA-MB-231 it was over 10 µM; in the data set on HCC78 it was over 10 µM. The IC50 with BT-549 is over 10 µM; at CDK4/Cyclin D3, over 1000 nM; in [12], over 1000 nM; in data set [14], over 1000 nM; in data set [17] it was over 1000 nM. For the same compound, the values for the AUC(0-t) at 24 h in [4] and in data set [8] were 32600 ng·h/mL and 7010 ng·h/mL, respectively. The inhibition result (in the data set with NCI-H1299; in data set [9]; in data set [10]) was “Active” in each case. The inhibition in vivo at 100 mg/kg with U-87 MG was determined as 99.1%. Besides, the inhibition result in data set [6] and in data set [13] was “Dose-Dependent Effect” in each case. This compound gave a maximum concentration (Cmax) in [7] of 4560 ng/mL. The half-life in [11] is 828 min. Moreover, the AUC(0-inf) in [15] is 7360 ng·h/mL. Further, in [16], the bioavailability amounted to 114%.
